Test results as given in patent US4075332A (priority 1976, dated 1978).
Like-named read-outs stand apart in the source and are kept apart here.

Legend:
in vivo = settings: rat, po
Spider mites [1] = test: Mite, Systemic; type: in vivo, two-spotted mite; settings: Tetranychus urticae
Method: (§1) In the insecticidal and miticidal tests, the experimental compounds were tested as aqueous emulsions. These emulsions were prepared by dissolving the compound in acetone and dispersing it in distilled water with Triton X-100, an alkylaryl polyether alcohol derived by the reaction of i-octylphenol with ethylene oxide, to give spray emulsions containing the desired concentrations of the compound. These emulsions were then used in standard laboratory tests described below.
Mite, Systemic: Bean plants infested with the two-spotted mites were treated by applying 20 ml. of the formulated test chemical to the soil.

Bean aphids [2] = test: Aphid, Systemic; type: in vivo, bean aphid; settings: Aphis fabae, 48 h
Method: as §1
Aphid, Systemic: Nasturtium plants infested with the bean aphid were treated by applying 20 ml. of the formulated test chemical to the soil. The degree of aphid control was rated after 2 days.

Mexican bean beetle = test: whole plant or invertebrate; settings: Epilachna varivestis
Spider mites [3] = test: whole plant or invertebrate; settings: Tetranychus urticae
Bean aphids [4] = test: whole plant or invertebrate; settings: Aphis fabae, 48 h
House fly = test: whole plant or invertebrate; settings: Musca domestica, 48 h
Southern army worm [5] = test: whole plant or invertebrate; settings: Spodoptera eridania, read-out: Mortality, % - Southern ArmyWorm
Root-knot nematode = settings: in vivo
[6] = Thermal stability of products (GC / nmr observation); type: physicochemical
Text: The corresponding primary alkyl derivatives such as the S'-n-propyl compound are stable under similar conditions.
The ethyl sulfinylmethyl product was unstable at room temperature.

Southern army worm [7] = settings: in vivo
Corn rootworm larvae = test: whole plant or invertebrate; settings: soil, 120 h
Bollworm larvae = test: Bollworm test on cotton plants; type: in vivo; settings: Helicoverpa zea, Table XIV, 0.5 lbs/acre
Method: Bollworms: Bollworm larvae used in the present study were progeny of adult moths collected from light traps stationed in cotton fields. The larvae were reared on the Vanderzant-Adkisson Special Wheat Germ Diet for Insects. This diet was fortified with Vanderzant's Insect Vitamin Fortification. The diet and the vitamin fortification were obtaind from Nutritional Biochemicals Corporation, Cleveland, Ohio. The larvae were reared and tested in continuous illumination at 78±5° […]. Only third and fourth instar larvae which weighed between 25 and 60 mg. were used in the tests.
Insecticidal sprays were made by the conventional low-volume (CLV) method. CLV sprays were applied through a 6X hollow-cone nozzle calibrated to deliver the equivalent of 3.5 ga./acre of the water/emulsion spray mixture. Sprays were applied to individual cotton plants grown in one gallon buckets. After treatment the plants were allowed to dry for 1 to 2 hours in the open air before being transported to a holding room. The larvae were placed on the treated leaf surfaces and held singly in small snap-on type plastic screen cages of about 11/2 inches in diameter. Untreated control groups were maintained for each test replicate so that treatment mortalities could be adjusted according to Abbott's formula. Treatments were replicated 3 times. Each replicate contained 20 larvae. […]

[8] = read-out: Mortality, % - Spider Mites Systemic
[9] = read-out: Mortality, % - Bean Aphids Systemic
[10] = read-out: Mortality, % - Mexican Bean Beetles
[11] = 48 h, read-out: Mortality, % - Spider Mites Contact
[12] = read-out: Mortality, % - Bean Aphids Contact
[13] = read-out: Mortality, % - Mexican Bean Beetle
[14] = read-out: Mortality Produced, % - Spider Mites Systemic
[15] = read-out: Mortality Produced, % - Bean Aphids Systemic
[16] = read-out: Mortality Produced, % - Mex.Bean Beetle
[17] = 48 h, read-out: Mortality Produced, % - Spider Mites Contact
[18] = read-out: Mortality Produced, % - Bean Aphids Contact
[19] = read-out: Mortality Produced, % - House Flies
[20] = read-out: Mortality Produced, % -
[21] = 24 h, read-out: Per Cent Mortality (24 hours After Application)
[22] = 48 h, read-out: Per Cent Mortality (48 hours After Application)
[23] = 72 h, read-out: Per Cent Mortality (72 hours After Application)

## CCCSCCSP(=O)(OCC)SCCC (stereo not shown) [2 (CIP)]
In vivo
  LD50 at 336 h: 215 mg/kg

## CCCSCCSP(=O)(OCC)SCCC (stereo not shown) [Example 2, O-Ethyl S-1-Propyl S'-2-n-Propylthioethyl Dithiophosphate]
Spider mites [1]; [8]
  mortality at 250 ppm: 100%
Bean aphids [2]; [9]
  mortality at 250 ppm: 75%
Mexican bean beetle; [10]
  mortality at 250 ppm: 100%
Spider mites [3]; [11]
  mortality at 250 ppm: 100%
Bean aphids [4]; [12]
  mortality at 250 ppm: 90%
House fly; read-out: Mortality, % - House Flies
  mortality at 250 ppm: 100%

## CCCSP(=O)(OCC)SCCSC(C)C (stereo not shown) [Example 3, O-Ethyl S-1-Propyl S'-2-i-Propylthioethyl Dithiophosphate]
Spider mites [1]; [8]
  mortality at 250 ppm: 85%
Southern army worm [5]
  mortality at 250 ppm: 100%
Mexican bean beetle; [10]
  mortality at 250 ppm: 100%
Spider mites [3]; [11]
  mortality at 250 ppm: 100%
Bean aphids [4]; [12]
  mortality at 250 ppm: 70%

## CCCSP(=O)(OCC)SCCSc1ccc(Cl)cc1 (stereo not shown) [Example 5, O-Ethyl S-1-Propyl S'-2-p-Chlorophenylthioethyl Dithiophosphate]
Spider mites [1]; [8]
  mortality at 250 ppm: 40%
Bean aphids [2]; [9]
  mortality at 250 ppm: 10%
Mexican bean beetle; [10]
  mortality at 250 ppm: 100%
Spider mites [3]; [11]
  mortality at 250 ppm: 100%
Bean aphids [4]; [12]
  mortality at 250 ppm: 95%

## CCCSP(=O)(OCC)SCCS(C)(=O)=O (stereo not shown) [Example 7, O-Ethyl S-1-Propyl S'-(2-Methylsulfonylethyl) Dithiophosphate]
Spider mites [1]; [8]
  mortality at 250 ppm: 100%
Bean aphids [2]; [9]
  mortality at 250 ppm: 100%
Root-knot nematode
  Nematode Control,% at 25 lb/acre: 100%
In vivo
  LD50 at 336 h: > 100 mg/kg
Southern army worm [5]
  mortality at 250 ppm: 100%
Mexican bean beetle; [13]
  mortality at 250 ppm: 100%
Spider mites [3]; [11]
  mortality at 250 ppm: 100%
Bean aphids [4]; [12]
  mortality at 250 ppm: 100%

## CCCSP(=O)(OCC)SCC[S+]([O-])C(C)C (stereo not shown) [Example 8, O-Ethyl S-1-Propyl S'-2-i-Propylsulfinylethyl Dithiophosphate]
Spider mites [1]; [8]
  mortality at 250 ppm: 90%
Root-knot nematode
  Nematode Control,% at 25 lb/acre: 75%
Southern army worm [5]
  mortality at 250 ppm: 90%
Mexican bean beetle; [13]
  mortality at 250 ppm: 100%
Spider mites [3]; [11]
  mortality at 250 ppm: 95%
Bean aphids [4]; [12]
  mortality at 250 ppm: 100%

## CCCSP(=O)(OCC)SCC(C)S(C)(=O)=O (stereo not shown) [Example 9, O-Ethyl S-1-Propyl S'-2-Methylsulfonylpropyl Dithiophosphate]
Spider mites [1]; [8]
  mortality at 250 ppm: 90%
Bean aphids [2]; [9]
  mortality at 250 ppm: 95%
Root-knot nematode
  Nematode Control,% at 25 lb/acre: 80%
Southern army worm [5]
  mortality at 250 ppm: 100%
Mexican bean beetle; [13]
  mortality at 250 ppm: 100%
Spider mites [3]; [11]
  mortality at 250 ppm: 90%
Bean aphids [4]; [12]
  mortality at 250 ppm: 90%

## CCOP(=O)(SCSCC)SCC(C)C (stereo not shown) [Example 12, O-Ethyl S-Isobutyl S'Ethylthiomethyl Dithiophosphate]
[6]; general statement
  thermal stability: thermal instability

## CCCSP(=O)(OCC)SCC(C)SC(C)C (stereo not shown) [Example 35, O-Ethyl S-1-Propyl S'-2-i-Propylthiopropyl Dithiophosphate]
Root-knot nematode
  Nematode Control,%: 100%
Southern army worm [7]
  S.Armyworm Mortality,%: 100%
Mexican bean beetle; read-out: Mexican Bean Beetles Mortality,%
  mortality at 50 ppm: 100%
Spider mites [3]; read-out: Spider Mites Mortality,%
  mortality at 10 ppm: 100%
Bean aphids [4]; read-out: Bean Aphids Mortality,%
  mortality at 50 ppm: 50%
Corn rootworm larvae; read-out: Corn Rootworm Mortality,%
  mortality at 2.5 ppm: 70%

## CCOP(=O)(SCC(C)C)SCC(C)SC (stereo not shown) [Example 37, O-Ethyl S-2-Methylpropyl S'-2-Methylthiopropyl Dithiophosphate]
Spider mites [1]; [14]
  mortality at 50 ppm: 100%
  mortality at 250 ppm: 100%
Bean aphids [2]; [15]
  mortality at 50 ppm: 70%
  mortality at 250 ppm: 100%
Mexican bean beetle; [16]
  mortality at 50 ppm: 100%
  mortality at 250 ppm: 100%
Spider mites [3]; [17]
  mortality at 50 ppm: 60%
  mortality at 250 ppm: 100%
Bean aphids [4]; [18]
  mortality at 50 ppm: 10%
  mortality at 250 ppm: 100%
House fly; [19]
  mortality at 50 ppm: 45%
  mortality at 250 ppm: 100%

## CCCSP(=O)(OCC)SCC(CC)SC (stereo not shown) [Example 38, O-Ethyl S-1-Propyl S'-2-Methylthiobutyl Dithiophosphate]
Root-knot nematode
  Nematodes Control % at 25 lb/acre: 90%
Southern army worm [7]; southern armyworm
  Mortality Produced at 50 ppm, % - Southern Army Worm: 80%
Mexican bean beetle; read-out: Mortality Produced at 50 ppm, % - Mexican Bean Beetles
  mortality at 50 ppm: 10%
Spider mites [3]; read-out: Mortality Produced at 50 ppm, % - Spider Mites
  mortality at 50 ppm: 100%
Bean aphids [4]; read-out: Mortality Produced at 50 ppm, % - Bean Aphids
  mortality at 50 ppm: 100%
House fly; read-out: Mortality Produced at 50 ppm, % - Houseflies
  mortality at 50 ppm: 100%
Corn rootworm larvae; read-out: Corn Rootworm Mortality, % at 2.5 ppm
  mortality at 2.5 ppm: 40%

## CCCSP(=O)(OC)SCC(C)SC (stereo not shown) [Example 40, O-Methyl S-1-Propyl S'-2-Methylthiopropyl Dithiophosphate]
Spider mites [1]; [14]
  mortality at 50 ppm: 100%
  mortality at 250 ppm: 100%
Bean aphids [2]; [15]
  mortality at 50 ppm: 100%
  mortality at 250 ppm: 100%
Mexican bean beetle; [16]
  mortality at 50 ppm: 0%
  mortality at 250 ppm: 100%
Spider mites [3]; [17]
  mortality at 50 ppm: 100%
  mortality at 250 ppm: 100%
Bean aphids [4]; [20]
  mortality at 50 ppm: 100%
  mortality at 250 ppm: 100%
House fly; [19]
  mortality at 50 ppm: 100%
  mortality at 250 ppm: 100%

## CCCCSP(=O)(OCC)SCC(C)SC (stereo not shown) [Example 41, O-Ethyl S-1-Butyl S'-Methylthiopropyl Dithiophosphate]
Spider mites [1]; [14]
  mortality at 50 ppm: 0%
  mortality at 250 ppm: 100%
Bean aphids [2]; [15]
  mortality at 50 ppm: 0%
  mortality at 250 ppm: 40%
Southern army worm [7]; southern armyworm
  Mortality Produced, % - S.Army Worm: 0%
Mexican bean beetle; [16]
  mortality at 50 ppm: 80%
  mortality at 250 ppm: 100%
Spider mites [3]; [17]
  mortality at 50 ppm: 100%
  mortality at 250 ppm: 100%
Bean aphids [4]; [18]
  mortality at 50 ppm: 60%
  mortality at 250 ppm: 100%
House fly; [19]
  mortality at 50 ppm: 0%
  mortality at 250 ppm: 100%

## CCOP(=O)(SCC(C)SC)SC(C)C (stereo not shown) [Example 42, O-Ethyl S-2-Propyl S-2-Methylthiopropyl Dithiophosphate]
Spider mites [1]; [14]
  mortality at 50 ppm: 0%
  mortality at 250 ppm: 100%
Bean aphids [2]; [15]
  mortality at 50 ppm: 20%
  mortality at 250 ppm: 80%
Mexican bean beetle; [16]
  mortality at 50 ppm: 100%
  mortality at 250 ppm: 100%
Spider mites [3]; [17]
  mortality at 50 ppm: 100%
  mortality at 250 ppm: 100%
Bean aphids [4]; [18]
  mortality at 50 ppm: 50%
  mortality at 250 ppm: 100%
House fly; [19]
  mortality at 50 ppm: 0%
  mortality at 250 ppm: 100%

## CCCOP(=O)(SCCC)SCC(C)SC (stereo not shown) [Example 43, O,S-Di-n-propyl S'-2-Methylthiopropyl dithiophosphate]
Spider mites [1]; [14]
  mortality at 50 ppm: 0%
  mortality at 250 ppm: 100%
Bean aphids [2]; [15]
  mortality at 50 ppm: 0%
  mortality at 250 ppm: 20%
Southern army worm [7]; southern armyworm
  Mortality Produced, % - S.Army Worm: 0%
Mexican bean beetle; [16]
  mortality at 50 ppm: 80%
  mortality at 250 ppm: 100%
Spider mites [3]; [17]
  mortality at 50 ppm: 50%
  mortality at 250 ppm: 100%
Bean aphids [4]; [20]
  mortality at 50 ppm: 80%
  mortality at 250 ppm: 80%
House fly; [19]
  mortality at 50 ppm: 70%
  mortality at 250 ppm: 100%

## CCOP(=S)(OCC)SCSc1ccc(Cl)cc1 [Trithion, reference compound]
Southern army worm [7]; southern armyworm
  Southern Army Worm Mortality, %: 0%
Mexican bean beetle; read-out: Mexican Bean Beetle Larvae Mortality, %
  mortality at 100 ppm: 90%
House fly; read-out: House Fly Spray Mortality, % (at 20 ppm)
  mortality at 20 ppm: 80%

## CCCSP(=O)(OCC)SCCSC (stereo not shown) [drawing 52]
Bollworm larvae; [21]
  mortality at 560.425 g/ha: 72%
Bollworm larvae; [22]
  mortality at 560.425 g/ha: 80%
Bollworm larvae; [23]
  mortality at 560.425 g/ha: 89%

## CCCSP(=O)(OCC)SCC(C)SC (stereo not shown) [drawing 53]
Bollworm larvae; [21]
  mortality at 560.425 g/ha: 84%
Bollworm larvae; [22]
  mortality at 560.425 g/ha: 96%
Bollworm larvae; [23]
  mortality at 560.425 g/ha: 96%

## CCCSC(C)CSP(=O)(OCC)SCCC (stereo not shown) [drawing 54]
Bollworm larvae; [21]
  mortality at 560.425 g/ha: 87%
Bollworm larvae; [22]
  mortality at 560.425 g/ha: 94%
Bollworm larvae; [23]
  mortality at 560.425 g/ha: 99%

## CCCSP(=O)(OCC)SC[S+]([O-])CC (stereo not shown) [ethyl sulfinylmethyl product]
[6]; room temperature
  stability (nmr): unstable

## CCOP(=O)(SCC)SCCSCC (stereo not shown) [reference compound]
In vivo
  LD50 at 336 h: 100 mg/kg

## CCOP(=S)(OCC)SCC(C)SC (stereo not shown) [reference compound]
In vivo
  LD50 at 336 h: 25 to 50 mg/kg

## CCOP(=S)(OCC)SCC(C)SCC (stereo not shown) [reference compound]
In vivo
  LD50 at 336 h: 25 to 50 mg/kg
